According to patent publication US12077503B2, “Substituted cyclic amides and their use as herbicides” (FMC CORPORATION, priority 2015, dated 2024):

Key:
Assay type in all cases: in vivo
[1] = system: barnyardgrass (Echinochloa crus-galli); assay: Test A preemergence; settings: Echinochloa crus-galli, pre-emergence, 240 h, 0 to 100 scale (0 no effect, 100 complete control), read-out: Plant response rating, Barnyardgrass; for pest or weed control at 500 g/ha: 500 g ai/ha, preemergence; for pest or weed control at 125 g/ha: Preemergence, 125 g ai/ha
How it was run: (§1)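 In a loam soil and sand blend, planted seeds got a preemergence directed soil spray, and young plants at the one- to two-leaf stage, 2–10 cm high, got a postemergence application; ~10 d greenhouse hold; injury rated visually, 0 = none, 100 = complete control.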

[2] = system: corn (Zea mays); assay: Test A preemergence; settings: Zea mays, pre-emergence, 240 h, 0 to 100 scale (0 no effect, 100 complete control); for Corn plant response rating (crop injury, 0 = no effect, 100 = complete kill) at 500 g/ha: 500 g ai/ha, preemergence; for Corn plant response rating (crop injury, 0 = no effect, 100 = complete kill) at 125 g/ha: Preemergence, 125 g ai/ha
How it was run: as §1

[3] = system: crabgrass, large (Digitaria sanguinalis); assay: Test A preemergence; settings: Digitaria sanguinalis, pre-emergence, 240 h, 0 to 100 scale (0 no effect, 100 complete control), read-out: Plant response rating, Crabgrass, Large; for pest or weed control at 500 g/ha: 500 g ai/ha, preemergence; for pest or weed control at 125 g/ha: Preemergence, 125 g ai/ha
How it was run: as §1

[4] = system: giant foxtail (Setaria faberii); assay: Test A preemergence; settings: Setaria faberi, pre-emergence, 240 h, 0 to 100 scale (0 no effect, 100 complete control), read-out: Plant response rating, Foxtail, Giant; for pest or weed control at 500 g/ha: 500 g ai/ha, preemergence; for pest or weed control at 125 g/ha: Preemergence, 125 g ai/ha
How it was run: as §1

[5] = system: morningglory (Ipomoea spp.); assay: Test A preemergence; settings: Ipomoea, pre-emergence, 240 h, 0 to 100 scale (0 no effect, 100 complete control), read-out: Plant response rating, Morningglory; for pest or weed control at 500 g/ha: 500 g ai/ha, preemergence; for pest or weed control at 125 g/ha: Preemergence, 125 g ai/ha
How it was run: as §1

[6] = system: pigweed (Amaranthus retroflexus); assay: Test A preemergence; settings: Amaranthus retroflexus, pre-emergence, 240 h, 0 to 100 scale (0 no effect, 100 complete control), read-out: Plant response rating, Pigweed; for pest or weed control at 500 g/ha: 500 g ai/ha, preemergence; for pest or weed control at 125 g/ha: Preemergence, 125 g ai/ha
[7] = system: velvetleaf (Abutilon theophrasti); assay: Test A preemergence; settings: Abutilon theophrasti, pre-emergence, 240 h, 0 to 100 scale (0 no effect, 100 complete control), read-out: Plant response rating, Velvetleaf; for pest or weed control at 500 g/ha: 500 g ai/ha, preemergence; for pest or weed control at 125 g/ha: Preemergence, 125 g ai/ha
How it was run: as §1

[8] = system: wheat (Triticum aestivum); assay: Test A preemergence; settings: Triticum aestivum, pre-emergence, 240 h, 0 to 100 scale (0 no effect, 100 complete control), read-out: Plant response rating, Wheat; for plant injury at 500 g/ha: 500 g ai/ha, preemergence; for plant injury at 125 g/ha: Preemergence, 125 g ai/ha
How it was run: as §1

[9] = system: barnyardgrass (Echinochloa crus-galli); assay: Test A postemergence; settings: Echinochloa crus-galli, post-emergence, 240 h, Postemergence; for pest or weed control at 125 g/ha: 125 g ai/ha, visual rating about 10 d after treatment, read-out: Barnyardgrass plant response rating (0 to 100 scale, 0 no effect, 100 complete control); for pest or weed control at 500 g/ha: 500 g ai/ha, visual injury, 0 to 100 scale (0 no effect, 100 complete control), approx. 10 d, read-out: Plant response rating, Barnyardgrass
How it was run: as §1

[10] = system: corn (Zea mays); assay: Test A postemergence; settings: Zea mays, post-emergence, 240 h, Postemergence; for plant injury at 125 g/ha: 125 g ai/ha, visual rating about 10 d after treatment, read-out: Corn plant response rating (0 to 100 scale); for Corn plant response rating (crop injury, 0 = no effect, 100 = complete kill) at 500 g/ha: 500 g ai/ha, visual injury, 0 to 100 scale (0 no effect, 100 complete control), approx. 10 d
How it was run: as §1

[11] = system: crabgrass, large (Digitaria sanguinalis); assay: Test A postemergence; settings: Digitaria sanguinalis, post-emergence, 240 h, Postemergence; for pest or weed control at 125 g/ha: 125 g ai/ha, visual rating about 10 d after treatment, read-out: Crabgrass, Large plant response rating (0 to 100 scale); for pest or weed control at 500 g/ha: 500 g ai/ha, visual injury, 0 to 100 scale (0 no effect, 100 complete control), approx. 10 d, read-out: Plant response rating, Crabgrass, Large
How it was run: as §1

[12] = system: giant foxtail (Setaria faberii); assay: Test A postemergence; settings: Setaria faberi, post-emergence, 240 h, Postemergence; for pest or weed control at 125 g/ha: 125 g ai/ha, visual rating about 10 d after treatment, read-out: Foxtail, Giant plant response rating (0 to 100 scale); for pest or weed control at 500 g/ha: 500 g ai/ha, visual injury, 0 to 100 scale (0 no effect, 100 complete control), approx. 10 d, read-out: Plant response rating, Foxtail, Giant
How it was run: as §1

[13] = system: morningglory (Ipomoea spp.); assay: Test A postemergence; settings: Ipomoea, post-emergence, 240 h, Postemergence; for pest or weed control at 125 g/ha: 125 g ai/ha, visual rating about 10 d after treatment, read-out: Morningglory plant response rating (0 to 100 scale); for pest or weed control at 500 g/ha: 500 g ai/ha, visual injury, 0 to 100 scale (0 no effect, 100 complete control), approx. 10 d, read-out: Plant response rating, Morningglory
How it was run: as §1

[14] = system: pigweed (Amaranthus retroflexus); assay: Test A postemergence; settings: Amaranthus retroflexus, post-emergence, 240 h, Postemergence; for pest or weed control at 125 g/ha: 125 g ai/ha, visual rating about 10 d after treatment, read-out: Pigweed plant response rating (0 to 100 scale); for pest or weed control at 500 g/ha: 500 g ai/ha, visual injury, 0 to 100 scale (0 no effect, 100 complete control), approx. 10 d, read-out: Plant response rating, Pigweed
How it was run: as §1

[15] = system: velvetleaf (Abutilon theophrasti); assay: Test A postemergence; settings: Abutilon theophrasti, post-emergence, 240 h, Postemergence; for pest or weed control at 125 g/ha: 125 g ai/ha, visual rating about 10 d after treatment, read-out: Velvetleaf plant response rating (0 to 100 scale); for pest or weed control at 500 g/ha: 500 g ai/ha, visual injury, 0 to 100 scale (0 no effect, 100 complete control), approx. 10 d, read-out: Plant response rating, Velvetleaf
How it was run: as §1

[16] = system: wheat (Triticum aestivum); assay: Test A postemergence; settings: Triticum aestivum, post-emergence, 240 h, Postemergence; for plant injury at 125 g/ha: 125 g ai/ha, visual rating about 10 d after treatment, read-out: Wheat plant response rating (0 to 100 scale); for plant injury at 500 g/ha: 500 g ai/ha, visual injury, 0 to 100 scale (0 no effect, 100 complete control), approx. 10 d, read-out: Plant response rating, Wheat
How it was run: as §1

CN1C[C@H](c2ccccc2)[C@](C)(C(=O)Nc2ccccc2F)C1=O (racemic) [Compound 1360]
0%: pest or weed control at 500 g/ha [1] | pest or weed control at 125 g/ha [1] | Corn plant response rating (crop injury, 0 = no effect, 100 = complete kill) at 500 g/ha [2] | Corn plant response rating (crop injury, 0 = no effect, 100 = complete kill) at 125 g/ha [2] | pest or weed control at 500 g/ha [3] | pest or weed control at 125 g/ha [3] | pest or weed control at 500 g/ha [4] | pest or weed control at 125 g/ha [4] | pest or weed control at 500 g/ha [5] | pest or weed control at 125 g/ha [5] | pest or weed control at 500 g/ha [6] | pest or weed control at 125 g/ha [6] | pest or weed control at 500 g/ha [7] | pest or weed control at 125 g/ha [7] | plant injury at 500 g/ha [8] | plant injury at 125 g/ha [8] | pest or weed control at 125 g/ha [9] | pest or weed control at 500 g/ha [9] | plant injury at 125 g/ha [10] | Corn plant response rating (crop injury, 0 = no effect, 100 = complete kill) at 500 g/ha [10] | pest or weed control at 125 g/ha [11] | pest or weed control at 500 g/ha [11] | pest or weed control at 125 g/ha [12] | pest or weed control at 500 g/ha [12] | pest or weed control at 125 g/ha [13] | pest or weed control at 500 g/ha [13] | pest or weed control at 125 g/ha [14] | pest or weed control at 500 g/ha [14] | pest or weed control at 125 g/ha [15] | pest or weed control at 500 g/ha [15] | plant injury at 125 g/ha [16] | plant injury at 500 g/ha [16]

O=C1NCC(c2c(Cl)cccc2Cl)C1C(=O)Nc1ccccc1F (stereo not shown) [Compound 1361]
0%: pest or weed control at 500 g/ha [1] | pest or weed control at 125 g/ha [1] | Corn plant response rating (crop injury, 0 = no effect, 100 = complete kill) at 500 g/ha [2] | Corn plant response rating (crop injury, 0 = no effect, 100 = complete kill) at 125 g/ha [2] | pest or weed control at 500 g/ha [3] | pest or weed control at 125 g/ha [3] | pest or weed control at 500 g/ha [4] | pest or weed control at 125 g/ha [4] | pest or weed control at 500 g/ha [5] | pest or weed control at 125 g/ha [5] | pest or weed control at 500 g/ha [6] | pest or weed control at 125 g/ha [6] | pest or weed control at 500 g/ha [7] | pest or weed control at 125 g/ha [7] | plant injury at 500 g/ha [8] | plant injury at 125 g/ha [8] | pest or weed control at 125 g/ha [9] | pest or weed control at 500 g/ha [9] | plant injury at 125 g/ha [10] | Corn plant response rating (crop injury, 0 = no effect, 100 = complete kill) at 500 g/ha [10] | pest or weed control at 125 g/ha [11] | pest or weed control at 500 g/ha [11] | pest or weed control at 125 g/ha [12] | pest or weed control at 500 g/ha [12] | pest or weed control at 125 g/ha [13] | pest or weed control at 500 g/ha [13] | pest or weed control at 125 g/ha [14] | pest or weed control at 500 g/ha [14] | pest or weed control at 125 g/ha [15] | pest or weed control at 500 g/ha [15] | plant injury at 125 g/ha [16] | plant injury at 500 g/ha [16]
